Results from patent US20090143391A1, “Aryl and heteroaryl fused imidazo [1,5-a] pyrazines as inhibitors of phosphodiesterase 10” (priority 2007, published 2009).

Legend:
PDE10 from pig striatum = PDE10 from pig striatum (Sus scrofa, UniProt A0A287B941); assay: Inhibition of PDE10 from pig striatum (Method A / Method B), [3H]-cAMP SPA; assay type: biochemical
Protocol: Striatum from male Wistar rats (180-200 g), male hybrid pigs (150 kg) and male guinea pigs (CRL (HA), 500 g) respectively were collected and frozen at −70° C. […] The supernatant is called the cytosolic fraction and was removed and stored on ice. The pellet was resuspended in the same buffer, but containing 1% Triton and incubated for 45 min at 4° C. Both fractions were independently applied onto a 5 ml Hi Trap™ QHP column at the Äkta-FPLC. After washing the columns the bound PDE protein was eluted with an increasing sodium chloride gradient (0 mM-500 mM sodium chloride) in 50 mM Tris/Mg-buffer at 4° C. for the cytosolic fraction and in the presence of 1% Triton for the membrane fraction. […] The fractions with PDE10-activity were pooled and frozen in aliquots until use at −20° C. PDE10 activity was determined in a one step procedure in microtiter plates. The reaction mixture of 100 μl contained 50 mM Tris-HCl/5 mM MgCl2 buffer (pH=7.4) (Sigma, Deisenhofen, Germany; Merck, Darmstadt, Germany) 0.1 μM [^3H]-cAMP (Amersham, Buckinghamshire, UK) and the enzyme. Nonspecific activity was tested without the enzyme. The reaction was initiated by addition of the substrate solution and was carried out at 37 ° C. for 30 minutes. Enzymatic activity was stopped by addition of 25 μl YSi-SPA-beads (Amersham-Pharmacia). One hour later the mixture was measured in a liquid scintillation counter for microtiter plates (Microbeta Trilux). To pipette the incubation mixture a robot Biomek (Fa. Beckman) is used. […] The optimal amount of enzyme in the assay has been determined and optimised for each enzyme preparation and substrate separately before using the enzyme in compound testing. For determination of IC50 values the Hill-plot, 2-parameter-model, was used. […] Striatum from male hybrid pigs (150 kg) were collected and frozen at −70° C. […] The supernatant was removed and the pellet was resuspended in the same buffer, but containing 1% Triton and incubated for 45 min at 4° C. The membrane fraction was applied onto a 5 ml Hi Trap™ QHP column at the Äkta-FPLC. After washing the column the bound PDE protein was eluted with an increasing sodium chloride gradient (0 mM-500 mM sodium chloride) in 50 mM Tris/Mg-buffer at 4° C. in the presence of 1% Triton. […] The fractions with PDE10-activity were pooled and frozen in aliquots until use at −20° C. PDE10 activity was determined in a one step procedure in microtiterplates. The reaction mixture of 100 μl contained 50 mM Tris-HCl/5 mM MgCl2 buffer (pH=7.4) (Sigma, Deisenhofen, Germany; Merck, Darmstadt, Germany) 0.1 μM [3H]-cAMP (Amersham, Buckinghamshire, UK) and the enzyme. Nonspecific activity was tested without the enzyme. The reaction was initiated by addition of the substrate solution and was carried out at 37° C. for 30 minutes. Enzymatic activity was stopped by addition of 25 μl YSi-SPA-beads (Amersham-Pharmacia). One hour later the mixture was measured in a liquid scintillation counter for microtiterplates (Microbeta Trilux). To pipette the incubation mixture a robot Biomek (Fa. Beckman) is used. […] The optimal amount of enzyme in the assay has been determined and optimised for each enzyme preparation before using the enzyme in compound testing. For determination of IC50 values the Hill-plot, 2-parameter-model, was used.

human recombinant PDE10A = molecular target: T1, human recombinant PDE10A (Homo sapiens, UniProt Q9Y233); assay: Inhibition of human recombinant PDE10A (Method B), [3H]-cAMP SPA; assay type: biochemical; conditions: read-out: PDE10 inhibition IC50 PDE10A human
T1 construct: made in house; host or cells: SF21 insect cells (baculovirus)
T1 sequence (Q9Y233 1-779 isoform Q9Y233-1): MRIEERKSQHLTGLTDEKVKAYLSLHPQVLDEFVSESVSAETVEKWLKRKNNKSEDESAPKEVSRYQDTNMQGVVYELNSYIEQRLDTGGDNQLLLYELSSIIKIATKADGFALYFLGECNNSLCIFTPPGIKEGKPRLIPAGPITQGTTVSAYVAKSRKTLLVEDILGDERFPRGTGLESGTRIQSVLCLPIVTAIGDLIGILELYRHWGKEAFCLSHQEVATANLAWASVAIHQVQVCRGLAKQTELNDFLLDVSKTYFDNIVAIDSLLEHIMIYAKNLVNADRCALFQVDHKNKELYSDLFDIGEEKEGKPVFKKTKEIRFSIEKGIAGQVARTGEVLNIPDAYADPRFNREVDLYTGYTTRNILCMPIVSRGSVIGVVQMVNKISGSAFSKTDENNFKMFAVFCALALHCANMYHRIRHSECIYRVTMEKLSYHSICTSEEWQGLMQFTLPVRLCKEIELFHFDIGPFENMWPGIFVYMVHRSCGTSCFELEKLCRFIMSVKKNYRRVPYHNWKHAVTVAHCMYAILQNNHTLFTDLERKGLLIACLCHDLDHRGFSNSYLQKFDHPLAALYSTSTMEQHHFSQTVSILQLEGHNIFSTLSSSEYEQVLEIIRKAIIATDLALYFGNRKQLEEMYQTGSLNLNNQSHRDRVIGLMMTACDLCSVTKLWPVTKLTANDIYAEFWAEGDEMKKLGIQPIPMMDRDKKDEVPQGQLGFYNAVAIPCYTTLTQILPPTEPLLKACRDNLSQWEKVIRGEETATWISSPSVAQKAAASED
Protocol: The gene was than inserted into a baculovirus vector, ligated with the baculovirus DNA. The enzyme-protein was expressed in SF21-cells. The enzyme was isolated from these cells by harvesting the cells by a centrifugation at 200 g to collect the cells. The cells were resuspended in 50 mM Tris-HCl/5 mM MgCl2 buffer (pH=7.4) and lysed by a sonication of the cells. The cytosolic PDE10A was obtained by a centrifugation at 48000 g for 1 h in the supernatant and stored at −70 ° C. PDE10 activity was determined in a one step procedure in microtiterplates. […] Nonspecific activity was tested without the enzyme. The reaction was initiated by addition of the substrate solution and was carried out at 37° C. for 30 minutes. Enzymatic activity was stopped by addition of 25 μl YSi-SPA-beads (Amersham-Pharmacia). One hour later the mixture was measured in a liquid scintillation counter for microtiterplates (Microbeta Trilux). To pipette the incubation mixture a robot Biomek (Fa. Beckman) is used. […] For determination of IC50 values the Hill-plot, 2-parameter-model, was used.

[1] = tested on: haloperidol-induced catalepsy; conditions: rats; cited from earlier work
[2] = tested on: dopamine concentration in rat brain; conditions: cited from earlier work
[3] = tested on: apomorphine-induced stereotypies; conditions: rats; cited from earlier work

Structure (SMILES) | melting point | IC50 (PDE10 from pig striatum) | IC50 (human recombinant PDE10A) | effect on haloperidol-induced catalepsy [1] | effect on dopamine concentration in rat brain [2] | effect on apomorphine-induced stereotypies [3]
CCc1nc(C)c2c(NS(C)(=O)=O)nc3ccc(N4CCCCC4)cc3n12 [Example 7, N-[1-Ethyl-3-methyl-8-(piperidin-1-yl)-imidazo(1,5-a)quinoxalin-4-yl]-methanesulfonamide] | 223 to 227 °C | 10 to 100 nM | – | – | – | –
Cc1nc(C2CCCCC2)n2c1c(NS(C)(=O)=O)nc1ccc(OCC3CC3)cc12 [Example 12, N-(1-Cyclohexyl-8-cyclopropylmethoxy-3-methyl-imidazo[1,5-a]quinoxalin-4-yl)-methanesulfonamide] | 259 to 261 °C | ≤ 10 nM | 10 to 100 nM | – | – | –
CCCc1nc(C)c2c(NS(C)(=O)=O)nc3ccc(OCC4CC4)cc3n12 [Example 11, N-(8-Cyclopropylmethoxy-3-methyl-1-propyl-imidazo[1,5-a]quinoxalin-4-yl)-methanesulfonamide] | 240 to 241 °C | – | ≤ 10 nM | – | – | –
COc1ccc2nc(Cl)c3c(C)nc(C4CCCCC4)n3c2c1 [Example B11] | 212 to 215 °C | – | 10 to 100 nM | – | – | –
CCc1nc(C)c2c(Cl)nc3ccc(N4CCCCC4)cc3n12 [Example B2, 4-Chloro-1-ethyl-3-methyl-8-piperidin-1-yl-imidazo(1,5-a)quinoxaline] | 160 to 163 °C | 10 to 100 nM | – | – | – | –
CCc1nc(C)c2c(Cl)nc3ccccc3n12 [Example B3] | 125 to 128 °C | 10 to 100 nM | – | – | – | –
CCCc1nc(C)c2c(Cl)nc3ccc(OCC4CC4)cc3n12 [Example B12] | 103 to 105 °C | – | 10 to 100 nM | – | – | –
COc1ccc2nc(NS(C)(=O)=O)c3c(C)nc(C4CCCCC4)n3c2c1 [Example 10, N-(1-Cyclohexyl-8-methoxy-3-methyl-imidazo[1,5-a]quinoxalin-4-yl)-methanesulfonamide] | 287 to 288 °C | – | 10 to 100 nM | – | – | –
Cc1nc(C2CCCCC2)n2c1c(NS(C)(=O)=O)nc1ccc(OCc3ccc4ccccc4n3)cc12 [Example 13, N-[1-Cyclohexyl-3-methyl-8-(quinolin-2-ylmethoxy)-imidazo[1,5-a]quinoxalin-4-yl]-methanesulfonamide] | 255 to 258 °C | ≤ 10 nM | ≤ 10 nM | – | – | –
Cc1nc(C2CCCCC2)n2c1c(Cl)nc1ccc(Cl)cc12 [Example B9] | 244 to 248 °C | ≥ 100 nM | – | – | – | –
CCCc1nc(C)c2c(Cl)nc3ccc(F)cc3n12 [Example B6, 4-Chloro-8-fluoro-3-methyl-1-propyl-imidazo(1,5-a)quinoxaline] | 133 to 135 °C | 10 to 100 nM | – | – | – | –
Cc1nc(C2CCCCC2)n2c1c(NS(C)(=O)=O)nc1ccc(F)cc12 [Example 6, N-(1-Cyclohexyl-8-fluoro-3-methyl-imidazo(1,5-a)quinoxalin-4-yl)-methanesulfonamide] | 291 to 293 °C | 10 to 100 nM | – | – | – | –
CCc1nc(C)c2c(NS(C)(=O)=O)nc3ccccc3n12 [Example 2, N-(1-Ethyl-3-methyl-imidazo(1,5-a)quinoxalin-4-yl)-methanesulfonamide] | – | ≥ 100 nM | – | – | – | –
CCCc1nc(C)c2c(NS(C)(=O)=O)nc3ccc(F)cc3n12 [Example 4, N-(8-Fluoro-3-methyl-1-propyl-imidazo(1,5-a)quinoxalin-4-yl)-methanesulfonamide] | 277 to 280 °C | 10 to 100 nM | – | – | – | –
CCCc1nc(C)c2c(NS(C)(=O)=O)nc3cc(OC)ccc3n12 [Example 15, N-(7-Methoxy-3-methyl-1-propyl-imidazo[1,5-a]quinoxalin-4-yl)-methanesulfonamide] | 222 to 226 °C | 10 to 100 nM | 10 to 100 nM | – | – | –
CCCc1nc(C)c2c(C#N)nc3ccc(F)cc3n12 [Example 1, 8-Fluoro-3-methyl-1-propyl-imidazo(1,5-a)quinoxaline-4-carbonitrile] | – | 10 to 100 nM | – | – | – | –
COc1ccc(Cc2nccc3cc(OC)c(OC)cc23)cc1OC [Papaverine] | – | – | – | increases haloperidol-induced catalepsy | reducing dopamine concentration | reduces apomorphine-induced stereotypies
CCCc1nc(C)c2c(NS(C)(=O)=O)nc3ccc(OC)cc3n12 [Example 9, N-(8-Methoxy-3-methyl-1-propyl-imidazo[1,5-a]quinoxalin-4-yl)-methanesulfonamide] | 234 to 237 °C | – | 10 to 100 nM | – | – | –
COc1ccc2nc(C#N)c3c(C)nc(C4CCCCC4)n3c2c1 [Example 8, 1-Cyclohexyl-8-methoxy-3-methyl-imidazo[1,5-a]quinoxaline-4-carbonitrile] | 244 to 248 °C | 10 to 100 nM | ≥ 100 nM | – | – | –
CCCc1nc(C)c2c(Cl)nc3cc(OC)ccc3n12 [Example B15] | 154 to 159 °C | – | 10 to 100 nM | – | – | –
Cc1nc(-c2ccccc2Cl)n2c1c(NS(C)(=O)=O)nc1ccc(F)cc12 [Example 5, N-(1-(2-Chlorphenyl)-8-fluoro-3-methyl-imidazo(1,5-a)quinoxalin-4-yl)-methanesulfonamide] | – | 10 to 100 nM | – | – | – | –
CCc1nc(C)c2c(NS(C)(=O)=O)nc3ccc(F)cc3n12 [Example 3, N-(1-Ethyl-8-fluoro-3-methyl-imidazo(1,5-a)quinoxalin-4-yl)-methanesulfonamide] | 268 to 269 °C | ≥ 100 nM | – | – | – | –
Cc1nc(C2CCCCC2)n2c1c(Cl)nc1ccc(OCC3CC3)cc12 [Example B13] | 165 to 168 °C | – | ≥ 100 nM | – | – | –
Cc1nc(C2CCCCC2)n2c1c(Cl)nc1ccc(F)cc12 [Example B7] | 205 to 210 °C | 10 to 100 nM | – | – | – | –
COc1ccc2c(c1)nc(NS(C)(=O)=O)c1c(C)nc(-c3ccccc3Cl)n12 [Example 14, N-[1-(2-Chloro-phenyl)-7-methoxy-3-methyl-imidazo[1,5-a]quinoxalin-4-yl]-methanesulfonamide] | 277 to 278 °C | 10 to 100 nM | 10 to 100 nM | – | – | –
